Experimental data published in patent publication US11345659B2, “Pipecolic esters for inhibition of the proteasome” (THE BOARD OF REGENTS OF THE UNIVERSY OF TEXAS SYSTEM, priority 2018, dated 2022).

Biological target: T1, latent core 20 S proteasome (Homo sapiens, UniProt P25787+P25789)
T1 construct: purified from erythrocytes; purchased Enzo Life Sciences, Inc. (Farmingdale, N.Y.); host or cells: human erythrocytes
Experiment: ChT-L peptidase activity of latent 20 S core
Assay type: biochemical
Conditions: no tRpt5 activation
Protocol: Human housekeeping 20 S and 26 S and complexes purified from erythrocytes were purchased from Enzo Life Sciences, Inc. (Farmingdale, N.Y.). The 1 mg/ml stock 20 S proteasome was diluted to 0.2 mg/ml working solution in 50 mM Tris/HCl, pH 8 containing 20% glycerol (dilution buffer). For the 26 S proteasome stock, the dilution buffer was supplemented with 2 mM ATP, 1 mM MgCl2, and 1 mM DTT (dithiothreitol). The ChT-L peptidase activity was measured as arbitrary intensity units of fluorescence emitted by 7-amino-4-methylcoumarin (AMC) released from the canonical model peptide substrate succinyl-LeuLeuValTyr-methylcoumarin (SucLLVY-MCA; Bachem Bioscience Inc., Philadelphia, Pa.), used at concentration of 100 μM. Free AMC (Sigma-Aldrich, St. Louis, Mo.) was used as the standard. The Rpt5 C-terminal peptide was synthesized (standard solid-phase peptide chemistry) and purified to at least 98% purity by GenScript (Piscataway, N.J.). […]
The reaction was carried out in 96-well plates, in 100 μL of reaction mixture, for 1 hour at 37° C. […] The reaction rates were calculated from a linear segment of kinetic curves constructed from measurements in 1-minutes intervals (Fluoroskan Ascent plate reader; Thermo Fisher Scientific Inc., Waltham, Mass.). Reaction rates were calculated using a linear fit executed by Slope Analyzer and Enzyme Kinetics applications launched within Origin Pro 2017 (OriginLab). […]

Q: How did the IC50 turn out when `COc1cc(CCCOC(=O)[C@@H]2CCCCN2C(=O)OCc2ccccc2)cc(OC)c1OC` [Compound 3, 1-benzyl 2-(3-(3,4,5-trimethoxyphenyl)propyl) (S)-piperidine-1,2-dicarboxylate] was run?
A: Its IC50 is 2800 nM.
